In US6548517B2, “Oxindole inhibitors of factor Xa” (Millennium Pharmaceuticals, Inc., priority 2000, dated 2003):

Experiments:
Assay type in all cases: biochemical
factor Xa = factor Xa (Homo sapiens, UniProt P00742); assay: factor Xa amidolytic assay (chromogenic substrate S-2765)
Description: (§1) The compounds of the present invention are dissolved in buffer to give solutions containing concentrations such that assay concentrations range from 0 to 100 μM. In the assays for thrombin, prothrombinase and factor Xa, a synthetic chromogenic substrate is added to a solution containing test compound and the enzyme of interest and the residual catalytic activity of that enzyme is determined spectrophotometrically. The IC50 of a compound is determined from the substrate turnover. The IC50 is the concentration of test compound giving 50% inhibition of: the substrate turnover.
(§2) The factor Xa and thrombin assays were performed at room temperature, in 0.02 M TrisHCl buffer, pH 7.5, containing 0.15 M NaCl. The rates of hydrolysis of the para-nitroanilide substrate S-2765 (Chromogenix) for factor Xa, and the substrate Chromozym TH (Boehringer Mannheim) for thrombin following preincubation of the enzyme with inhibitor for 5 minutes at room temperature, and were determined using the Softmax 96-well plate reader (Molecular Devices), monitored at 405 nm to measure the time dependent appearance of p-nitroaniline.

thrombin = target: T1, thrombin (Homo sapiens, UniProt P00734); assay: thrombin amidolytic assay (Chromozym TH); settings: read-out: IIA IC50
T1 construct: proteolytic cleavage of its precursor prothrombin at the Arg-Thr linkage at positions 271-272 and the Arg-Ile linkage at positions 320-321
Description: as §1, §2

prothrombinase complex = prothrombinase complex (Homo sapiens, UniProt P00742); assay: prothrombinase inhibition assay, plasma free system; settings: read-out: IIASE IC50
prothrombinase complex, sequence (P00742 235-488 limits assumed): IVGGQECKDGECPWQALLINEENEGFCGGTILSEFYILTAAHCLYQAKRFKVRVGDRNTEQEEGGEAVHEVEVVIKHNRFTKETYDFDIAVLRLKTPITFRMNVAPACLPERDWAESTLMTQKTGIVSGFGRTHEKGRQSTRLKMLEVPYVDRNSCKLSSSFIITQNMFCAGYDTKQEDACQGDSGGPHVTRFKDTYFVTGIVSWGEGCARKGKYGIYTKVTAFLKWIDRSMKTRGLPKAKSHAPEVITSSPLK
prothrombinase complex, sequence (P00742 41-179 limits assumed): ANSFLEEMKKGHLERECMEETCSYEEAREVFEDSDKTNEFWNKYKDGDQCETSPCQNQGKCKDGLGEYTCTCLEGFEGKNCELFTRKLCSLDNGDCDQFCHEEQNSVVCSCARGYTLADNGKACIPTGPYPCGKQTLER
prothrombinase complex, sequence (P12259 29-737 partner limits assumed): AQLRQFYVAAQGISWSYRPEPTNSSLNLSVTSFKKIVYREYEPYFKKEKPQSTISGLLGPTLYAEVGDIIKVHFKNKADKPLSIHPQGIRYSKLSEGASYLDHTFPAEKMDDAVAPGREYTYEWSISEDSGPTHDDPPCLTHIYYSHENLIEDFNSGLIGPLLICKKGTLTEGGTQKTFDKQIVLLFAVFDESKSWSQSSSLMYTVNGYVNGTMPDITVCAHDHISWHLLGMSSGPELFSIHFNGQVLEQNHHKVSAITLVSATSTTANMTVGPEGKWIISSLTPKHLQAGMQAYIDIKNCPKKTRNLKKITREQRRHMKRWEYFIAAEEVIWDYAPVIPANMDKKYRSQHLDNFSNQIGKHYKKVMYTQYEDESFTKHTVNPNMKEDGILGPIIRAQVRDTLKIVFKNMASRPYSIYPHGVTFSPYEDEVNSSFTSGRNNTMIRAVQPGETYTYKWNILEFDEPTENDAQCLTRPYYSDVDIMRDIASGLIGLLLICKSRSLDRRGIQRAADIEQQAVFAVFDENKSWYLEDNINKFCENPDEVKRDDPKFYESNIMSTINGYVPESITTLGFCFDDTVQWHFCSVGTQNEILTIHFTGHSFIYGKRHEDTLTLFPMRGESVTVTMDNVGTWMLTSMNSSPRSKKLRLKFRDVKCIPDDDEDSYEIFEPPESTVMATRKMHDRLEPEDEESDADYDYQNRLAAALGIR
prothrombinase complex, sequence (P12259 1574-2224 partner limits assumed): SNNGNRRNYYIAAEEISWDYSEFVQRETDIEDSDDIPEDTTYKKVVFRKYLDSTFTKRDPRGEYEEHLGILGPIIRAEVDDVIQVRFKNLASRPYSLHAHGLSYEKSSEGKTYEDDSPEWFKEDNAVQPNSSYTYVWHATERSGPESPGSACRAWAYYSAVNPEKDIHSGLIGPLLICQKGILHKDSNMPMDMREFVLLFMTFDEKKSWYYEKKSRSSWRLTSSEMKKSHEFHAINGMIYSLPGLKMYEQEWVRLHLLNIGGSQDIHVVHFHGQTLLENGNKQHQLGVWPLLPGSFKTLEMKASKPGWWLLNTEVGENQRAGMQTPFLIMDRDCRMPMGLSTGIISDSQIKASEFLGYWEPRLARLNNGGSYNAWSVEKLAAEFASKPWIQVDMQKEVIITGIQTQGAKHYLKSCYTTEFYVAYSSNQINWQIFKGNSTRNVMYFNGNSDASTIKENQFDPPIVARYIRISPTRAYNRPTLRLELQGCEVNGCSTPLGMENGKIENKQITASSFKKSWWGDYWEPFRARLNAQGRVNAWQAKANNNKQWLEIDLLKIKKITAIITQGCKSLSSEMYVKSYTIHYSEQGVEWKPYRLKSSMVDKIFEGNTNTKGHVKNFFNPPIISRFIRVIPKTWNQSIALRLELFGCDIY
Description: as §1
The prothrombinase inhibition assay was performed in a plasma free system with modifications to the method described by Sinha, U. et al., Thromb. Res., 75, 427-436 (1994). Specifically, the activity of the prothrombinase complex was determined by measuring the time course of thrombin generation using the p-nitroanilide substrate Chromozym TH. The assay consists of preincubation (5 minutes) of selected compounds to be tested as inhibitors with the complex formed from factor Xa (0.5 nM), factor Va (2 nM), phosphatidyl serine:phosphatidyl choline (25:75, 20 μM) in 20 mM TrisHCI buffer, pH 7.5, containing 0.15 M NaCl, 5 mM CaCl2 and 0.1% bovine serum albumin. Aliquots from the complex-inhibitor mixture were added to prothrombin (1 nM) and Chromozym TH (0.1 mM). The rate of substrate cleavage was monitored at 405 nm for two minutes. Eight different concentrations of inhibitor were assayed in duplicate. A standard curve of thrombin generation by an equivalent amount of untreated complex was used for determination of percent inhibition.

TRYPSIN = target: T2, TRYPSIN (Bos taurus, UniProt P00760); assay: trypsin protease inhibition assay
T2 construct: gene PRSS1
T2 sequence (P00760 24-246): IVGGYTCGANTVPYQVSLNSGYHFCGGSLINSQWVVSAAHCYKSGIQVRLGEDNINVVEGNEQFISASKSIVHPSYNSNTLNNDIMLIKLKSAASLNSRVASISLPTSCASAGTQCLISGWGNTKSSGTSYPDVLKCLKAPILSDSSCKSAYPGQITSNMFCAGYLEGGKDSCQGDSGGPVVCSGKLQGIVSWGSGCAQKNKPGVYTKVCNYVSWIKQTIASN

TPA = TPA (Homo sapiens, UniProt P00750); assay: TPA protease inhibition assay
TPA, sequence (P00750 36-562, species assumed): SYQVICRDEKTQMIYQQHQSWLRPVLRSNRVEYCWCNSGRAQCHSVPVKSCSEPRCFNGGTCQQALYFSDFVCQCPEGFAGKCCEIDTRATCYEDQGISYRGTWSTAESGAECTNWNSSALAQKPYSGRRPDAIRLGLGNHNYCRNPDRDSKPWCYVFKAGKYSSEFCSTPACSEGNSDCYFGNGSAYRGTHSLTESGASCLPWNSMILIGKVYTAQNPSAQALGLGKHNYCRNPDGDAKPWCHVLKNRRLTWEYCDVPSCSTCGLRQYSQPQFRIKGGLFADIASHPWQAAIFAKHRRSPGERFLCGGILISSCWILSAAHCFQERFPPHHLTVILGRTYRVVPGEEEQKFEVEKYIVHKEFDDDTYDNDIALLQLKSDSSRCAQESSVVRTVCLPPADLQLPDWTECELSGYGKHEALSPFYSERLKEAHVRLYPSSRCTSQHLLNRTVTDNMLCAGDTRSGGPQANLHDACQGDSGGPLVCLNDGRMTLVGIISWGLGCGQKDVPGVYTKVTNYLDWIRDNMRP

APC = APC (Homo sapiens, UniProt P04070); assay: APC protease inhibition assay
APC, sequence (P04070 212-461 limits assumed): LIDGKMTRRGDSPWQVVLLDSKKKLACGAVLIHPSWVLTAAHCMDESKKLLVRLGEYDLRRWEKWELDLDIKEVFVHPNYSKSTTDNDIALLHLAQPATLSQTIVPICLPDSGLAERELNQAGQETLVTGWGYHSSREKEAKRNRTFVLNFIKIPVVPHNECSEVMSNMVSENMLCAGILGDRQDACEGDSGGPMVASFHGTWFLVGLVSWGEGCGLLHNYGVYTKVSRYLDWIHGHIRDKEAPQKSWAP
APC, sequence (P04070 43-197 limits assumed): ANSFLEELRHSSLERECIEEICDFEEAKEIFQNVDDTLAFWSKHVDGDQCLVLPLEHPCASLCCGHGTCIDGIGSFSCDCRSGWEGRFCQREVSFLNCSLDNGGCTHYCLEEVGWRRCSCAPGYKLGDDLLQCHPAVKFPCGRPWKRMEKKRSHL

PLASMIN = PLASMIN (Homo sapiens, UniProt P00747); assay: plasmin protease inhibition assay
PLASMIN, sequence (P00747 581-810 limits assumed, species assumed): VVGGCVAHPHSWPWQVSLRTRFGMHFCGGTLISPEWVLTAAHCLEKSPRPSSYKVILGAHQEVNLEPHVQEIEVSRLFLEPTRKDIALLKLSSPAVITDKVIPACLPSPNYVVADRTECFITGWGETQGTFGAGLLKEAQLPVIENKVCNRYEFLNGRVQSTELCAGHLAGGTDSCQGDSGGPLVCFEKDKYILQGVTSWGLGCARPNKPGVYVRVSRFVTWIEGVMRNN
PLASMIN, sequence (P00747 97-580 limits assumed, species assumed): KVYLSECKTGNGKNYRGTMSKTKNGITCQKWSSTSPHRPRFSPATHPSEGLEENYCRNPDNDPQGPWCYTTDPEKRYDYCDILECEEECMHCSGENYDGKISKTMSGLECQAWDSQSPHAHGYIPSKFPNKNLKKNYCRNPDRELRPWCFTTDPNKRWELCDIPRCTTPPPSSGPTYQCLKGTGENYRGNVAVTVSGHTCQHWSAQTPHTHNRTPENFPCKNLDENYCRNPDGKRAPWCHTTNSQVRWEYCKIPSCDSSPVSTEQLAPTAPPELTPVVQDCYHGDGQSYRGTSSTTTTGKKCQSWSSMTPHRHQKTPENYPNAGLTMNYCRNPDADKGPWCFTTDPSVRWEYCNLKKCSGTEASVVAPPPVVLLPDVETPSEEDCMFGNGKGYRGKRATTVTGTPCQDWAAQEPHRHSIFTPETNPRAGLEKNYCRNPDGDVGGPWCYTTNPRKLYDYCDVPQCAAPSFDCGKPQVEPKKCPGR

KALLIKREIN = assay: kallikrein protease inhibition assay

factor Xa, sequence (P00742 235-488 limits assumed): as the sequence (P00742 235-488 limits assumed) above
factor Xa, sequence (P00742 41-179 limits assumed): as the sequence (P00742 41-179 limits assumed) above

| IC50 (factor Xa) [nM] | IC50 (thrombin) [µM] | IC50 (prothrombinase complex) [nM] | IC50 (TRYPSIN) [nM] | IC50 (TPA) [µM] | IC50 (APC) [nM] | IC50 (PLASMIN) [nM] | IC50 (KALLIKREIN) [nM] | SMILES |
| --- | --- | --- | --- | --- | --- | --- | --- | --- |
| 13 | 72.5 | 504 | 62.1 | 18.3 | 5180 | 2460 | 307 | CC(=N)N1CCC(Oc2ccc3c(c2)CC(=O)N3Cc2ccc3ccc(C(=N)N)cc3c2)CC1 [Example 1] |
| 40.2 | 6.97 | 163 | 13.5 | 17.9 | 848 | 2210 | 606 | CC(=N)N1CCC(Oc2ccc3c(c2)C(C)(C)C(=O)N3Cc2ccc3ccc(C(=N)N)cc3c2)CC1 [Example 4] |
| 72.5 | 4.53 | 264 | 6.39 | 19.5 | 683 | 1410 | 535 | CC1(C)C(=O)N(Cc2ccc3ccc(C(=N)N)cc3c2)c2ccc(OC3CCN(C(=N)N)CC3)cc21 [Example 5] |
| 15.1 | 19.5 | 19.8 | 17.6 | 28.5 | 3060 | 880 | 304 | CC(C)=C1C(=O)N(Cc2ccc3ccc(C(=N)N)cc3c2)c2ccc(OC3CCN(C(=N)N)CC3)cc21 [Example 6] |
| 28.4 | 4.26 | 116 | 3.47 | 27.9 | 549 | 734 | 440 | CC(C)C1C(=O)N(Cc2ccc3ccc(C(=N)N)cc3c2)c2ccc(OC3CCN(C(=N)N)CC3)cc21 (stereo not shown) [Example 7] |
| 18.7 | 4.71 | 36.3 | 4.92 | 18.1 | 389 | 628 | 334 | CC(=N)N1CCC(Oc2ccc3c(c2)C(C(C)C)C(=O)N3Cc2ccc3ccc(C(=N)N)cc3c2)CC1 (stereo not shown) [Example 8] |
| 2.82 | 28 | 8.4 | 8.1 | 26.6 | 954 | 319 | 128 | CC(=N)N1CCC(Oc2ccc3c(c2)/C(=C/c2ccccc2)C(=O)N3Cc2ccc3ccc(C(=N)N)cc3c2)CC1 [Example 9] |
| 5.92 | 20 | 19.3 | 10.4 | 38.5 | 1550 | 407 | 201 | CC(=N)N1CCC(Oc2ccc3c(c2)/C(=C/c2ccc(F)cc2)C(=O)N3Cc2ccc3ccc(C(=N)N)cc3c2)CC1 [Example 10] |
| 5.76 | 16.1 | 17.4 | 30.3 | 28.7 | 1480 | 309 | 259 | CC(=N)N1CCC(Oc2ccc3c(c2)/C(=C/c2ccc(Cl)cc2)C(=O)N3Cc2ccc3ccc(C(=N)N)cc3c2)CC1 [Example 11] |
| 17.4 | 240 | 117 | 28.6 | 62.1 | 6660 | 1250 | 2420 | CC(=N)N1CCC(Oc2ccc3c(c2)/C(=C/C(=O)O)C(=O)N3Cc2ccc3ccc(C(=N)N)cc3c2)CC1 [Example 12] |
| 53.6 | 500 | 90.4 | 140 | 37 | 9940 | 2130 | 1590 | CC(=N)N1CCC(Oc2ccc3c(c2)C(CC(=O)O)C(=O)N3Cc2ccc3ccc(C(=N)N)cc3c2)CC1 (stereo not shown) [Example 13] |
